The source of these data is ChEMBL document CHEMBL4680251, “Discovery of a 2-pyridinyl urea-containing compound YD57 as a potent inhibitor of apoptosis signal-regulating kinase 1 (ASK1)” (Eur J Med Chem, 2020).

pIC50: −log10 of the molar value.

The target in assay [1] is T1, Mitogen-activated protein kinase kinase kinase 5 (Homo sapiens, UniProt Q99683).
T1 sequence (Q99683 whole entry): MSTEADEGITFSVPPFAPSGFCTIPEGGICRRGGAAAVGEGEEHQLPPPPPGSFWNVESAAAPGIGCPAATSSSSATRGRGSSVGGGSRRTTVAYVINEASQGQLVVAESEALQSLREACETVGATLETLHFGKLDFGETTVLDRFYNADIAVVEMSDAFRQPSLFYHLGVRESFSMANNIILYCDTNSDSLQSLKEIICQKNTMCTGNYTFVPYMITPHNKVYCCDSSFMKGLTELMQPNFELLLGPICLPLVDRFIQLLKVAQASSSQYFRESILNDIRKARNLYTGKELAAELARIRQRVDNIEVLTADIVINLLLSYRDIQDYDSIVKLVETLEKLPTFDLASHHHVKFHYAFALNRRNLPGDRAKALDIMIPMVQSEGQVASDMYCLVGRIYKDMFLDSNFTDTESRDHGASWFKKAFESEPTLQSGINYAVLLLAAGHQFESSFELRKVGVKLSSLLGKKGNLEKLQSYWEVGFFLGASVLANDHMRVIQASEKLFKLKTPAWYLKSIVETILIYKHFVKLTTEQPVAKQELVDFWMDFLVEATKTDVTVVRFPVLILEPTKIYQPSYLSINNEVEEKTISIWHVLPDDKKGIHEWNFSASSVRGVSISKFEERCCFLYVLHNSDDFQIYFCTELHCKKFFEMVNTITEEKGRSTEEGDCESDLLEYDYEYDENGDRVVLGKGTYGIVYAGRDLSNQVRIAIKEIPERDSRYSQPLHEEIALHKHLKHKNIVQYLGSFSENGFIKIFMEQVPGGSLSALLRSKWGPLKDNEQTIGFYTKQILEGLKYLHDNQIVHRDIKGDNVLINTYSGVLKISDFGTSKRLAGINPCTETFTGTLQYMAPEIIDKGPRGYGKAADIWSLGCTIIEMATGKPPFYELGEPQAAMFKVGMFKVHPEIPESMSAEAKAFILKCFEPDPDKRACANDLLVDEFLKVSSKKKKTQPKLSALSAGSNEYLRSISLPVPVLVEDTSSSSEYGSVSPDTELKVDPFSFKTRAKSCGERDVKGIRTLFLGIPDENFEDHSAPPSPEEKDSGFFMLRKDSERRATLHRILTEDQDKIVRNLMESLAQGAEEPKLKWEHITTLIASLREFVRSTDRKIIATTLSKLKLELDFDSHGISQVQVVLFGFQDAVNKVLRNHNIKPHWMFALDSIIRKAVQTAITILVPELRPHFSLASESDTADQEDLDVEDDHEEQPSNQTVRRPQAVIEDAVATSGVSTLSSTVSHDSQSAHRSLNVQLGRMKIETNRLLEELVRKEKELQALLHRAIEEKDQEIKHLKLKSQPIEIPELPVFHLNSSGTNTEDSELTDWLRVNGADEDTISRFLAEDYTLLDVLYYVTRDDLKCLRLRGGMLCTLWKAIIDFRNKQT
Kind of assay: Inhibition of ASK1 (unknown origin).

For assay [2], the target named is T2, Mitogen-activated protein kinase kinase kinase 7 (Homo sapiens, UniProt O43318).
T2 sequence (O43318 whole entry): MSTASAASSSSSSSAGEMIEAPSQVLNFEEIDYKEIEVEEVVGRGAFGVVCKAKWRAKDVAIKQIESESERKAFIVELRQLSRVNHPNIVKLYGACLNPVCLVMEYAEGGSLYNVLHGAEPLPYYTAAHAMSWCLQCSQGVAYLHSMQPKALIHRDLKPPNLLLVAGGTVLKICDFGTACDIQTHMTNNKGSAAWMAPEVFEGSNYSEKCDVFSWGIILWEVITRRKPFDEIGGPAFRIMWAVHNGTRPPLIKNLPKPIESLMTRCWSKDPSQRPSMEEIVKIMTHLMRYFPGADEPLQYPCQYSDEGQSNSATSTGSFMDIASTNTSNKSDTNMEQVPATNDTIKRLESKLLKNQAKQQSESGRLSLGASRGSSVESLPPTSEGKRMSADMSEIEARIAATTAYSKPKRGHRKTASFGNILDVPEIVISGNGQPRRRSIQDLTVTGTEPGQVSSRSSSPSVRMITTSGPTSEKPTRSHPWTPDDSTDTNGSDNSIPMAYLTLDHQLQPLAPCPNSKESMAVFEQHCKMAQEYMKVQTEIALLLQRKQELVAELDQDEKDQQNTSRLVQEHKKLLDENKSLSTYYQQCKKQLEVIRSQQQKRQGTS
The assay is described as follows: Inhibition of TAK1 (unknown origin).

In assay [3] the target is Glycogen synthase kinase-3 beta (Homo sapiens, UniProt P49841). Kind of assay: Inhibition of human recombinant GSK3 beta H350L mutant using YRRAAVPPSPSLSR as substrate incubated for 40 mins in presence of [gamma-33ATP] by radiometric scintillation counting analysis.
Assay [4] has as its target Non-receptor tyrosine-protein kinase TYK2 (Homo sapiens, UniProt P29597). Kind of assay: Inhibition of human recombinant TYK2 (875 to end residues) using GGMEDIYFEFMGG as substrate incubated for 40 mins in presence of [gamma-33ATP] by radiometric scintillation counting analysis.
Assay [5] relates to HepG2. Kind of assay: Induction of cell cycle arrest in human HepG2 cells assessed as accumulation at S phase at 0.5 uM incubated for 24 hrs by propidium iodide staining based flow cytometry (reference value: 33.27%). It counts as functional. In general terms: A flow cytometer gives signals particle by particle.
Assay [6] relates to HepG2. Kind of assay: Induction of cell cycle arrest in human HepG2 cells assessed as accumulation at G0/G1 phase at 2 uM incubated for 24 hrs by propidium iodide staining based flow cytometry (reference value: 38.34%). It is filed as functional.
Assay [7] has as its system HepG2. Kind of assay: Induction of cell cycle arrest in human HepG2 cells assessed as accumulation at G0/G1 phase at 8 uM incubated for 24 hrs by propidium iodide staining based flow cytometry (reference value: 38.34%). It counts as functional.
Assay [8] relates to HepG2. Kind of assay: Induction of cell cycle arrest in human HepG2 cells assessed as accumulation at S phase at 16 uM incubated for 24 hrs by propidium iodide staining based flow cytometry (reference value: 33.27%). It is filed as functional.

Non-receptor tyrosine-protein kinase TYK2, sequence (P29597 whole entry): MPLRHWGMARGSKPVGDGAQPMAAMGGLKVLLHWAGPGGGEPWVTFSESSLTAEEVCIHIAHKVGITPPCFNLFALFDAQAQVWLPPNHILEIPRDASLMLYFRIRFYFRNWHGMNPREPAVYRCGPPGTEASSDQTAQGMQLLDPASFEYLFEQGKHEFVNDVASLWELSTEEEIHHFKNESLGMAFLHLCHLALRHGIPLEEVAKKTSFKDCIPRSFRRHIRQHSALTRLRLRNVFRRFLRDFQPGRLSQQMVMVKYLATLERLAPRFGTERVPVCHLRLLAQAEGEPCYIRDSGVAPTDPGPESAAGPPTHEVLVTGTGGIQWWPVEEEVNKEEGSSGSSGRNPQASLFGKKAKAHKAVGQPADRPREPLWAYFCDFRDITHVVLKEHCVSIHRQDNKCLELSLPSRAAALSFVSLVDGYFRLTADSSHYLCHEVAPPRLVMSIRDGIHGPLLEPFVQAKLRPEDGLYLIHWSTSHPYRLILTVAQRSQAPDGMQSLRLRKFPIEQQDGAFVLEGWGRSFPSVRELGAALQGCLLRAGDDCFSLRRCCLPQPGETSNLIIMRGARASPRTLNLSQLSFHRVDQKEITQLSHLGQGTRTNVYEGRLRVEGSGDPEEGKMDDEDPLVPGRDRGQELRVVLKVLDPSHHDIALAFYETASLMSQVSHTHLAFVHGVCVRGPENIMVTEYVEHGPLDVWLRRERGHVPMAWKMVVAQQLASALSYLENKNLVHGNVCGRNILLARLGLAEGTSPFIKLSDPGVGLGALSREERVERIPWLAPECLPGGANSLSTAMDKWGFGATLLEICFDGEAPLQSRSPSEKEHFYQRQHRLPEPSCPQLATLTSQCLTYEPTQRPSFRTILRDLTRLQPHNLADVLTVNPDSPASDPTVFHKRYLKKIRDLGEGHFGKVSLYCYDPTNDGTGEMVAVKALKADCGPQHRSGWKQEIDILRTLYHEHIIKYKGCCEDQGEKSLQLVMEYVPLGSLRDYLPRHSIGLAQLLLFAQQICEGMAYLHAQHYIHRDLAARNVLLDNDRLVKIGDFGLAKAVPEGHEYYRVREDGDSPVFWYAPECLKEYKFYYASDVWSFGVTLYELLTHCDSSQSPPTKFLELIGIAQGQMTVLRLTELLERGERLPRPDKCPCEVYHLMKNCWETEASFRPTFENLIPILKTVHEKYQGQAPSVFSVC
Glycogen synthase kinase-3 beta, sequence (P49841 whole entry): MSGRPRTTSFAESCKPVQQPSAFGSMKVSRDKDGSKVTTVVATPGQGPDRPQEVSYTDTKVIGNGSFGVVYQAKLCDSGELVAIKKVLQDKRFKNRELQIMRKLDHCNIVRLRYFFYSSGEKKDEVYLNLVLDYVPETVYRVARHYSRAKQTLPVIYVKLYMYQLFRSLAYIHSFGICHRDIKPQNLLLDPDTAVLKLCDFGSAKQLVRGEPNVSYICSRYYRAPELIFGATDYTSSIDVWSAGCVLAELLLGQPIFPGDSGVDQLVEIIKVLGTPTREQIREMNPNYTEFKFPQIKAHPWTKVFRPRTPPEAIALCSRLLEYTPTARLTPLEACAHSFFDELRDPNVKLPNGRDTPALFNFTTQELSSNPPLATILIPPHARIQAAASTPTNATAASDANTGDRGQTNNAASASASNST

As for `C[C@H](CO)n1cnnc1-c1cccc(NC(=O)Nc2cc3ccccn3n2)n1`, the negative-log IC50 (pIC50) is 7.47 in assay [1], 5.30 in assay [2], 6.55 in assay [3] and 5.77 in assay [4]. In addition, the Activity in assay [5] came out at 31.94%; in assay [6], 63.79%; in assay [7], 66.65%; in assay [8], 9.63%.

What is called pIC50 is the IC50 on a negative log10 scale, so that one unit is a factor of ten.
